The results in this text go back to publication PMC4136709 (ACS Chemical Biology, 2014).

One assay has as its target T1, PhaCRe (Cupriavidus necator, UniProt P23608).
T1 sequence (P23608 1-589): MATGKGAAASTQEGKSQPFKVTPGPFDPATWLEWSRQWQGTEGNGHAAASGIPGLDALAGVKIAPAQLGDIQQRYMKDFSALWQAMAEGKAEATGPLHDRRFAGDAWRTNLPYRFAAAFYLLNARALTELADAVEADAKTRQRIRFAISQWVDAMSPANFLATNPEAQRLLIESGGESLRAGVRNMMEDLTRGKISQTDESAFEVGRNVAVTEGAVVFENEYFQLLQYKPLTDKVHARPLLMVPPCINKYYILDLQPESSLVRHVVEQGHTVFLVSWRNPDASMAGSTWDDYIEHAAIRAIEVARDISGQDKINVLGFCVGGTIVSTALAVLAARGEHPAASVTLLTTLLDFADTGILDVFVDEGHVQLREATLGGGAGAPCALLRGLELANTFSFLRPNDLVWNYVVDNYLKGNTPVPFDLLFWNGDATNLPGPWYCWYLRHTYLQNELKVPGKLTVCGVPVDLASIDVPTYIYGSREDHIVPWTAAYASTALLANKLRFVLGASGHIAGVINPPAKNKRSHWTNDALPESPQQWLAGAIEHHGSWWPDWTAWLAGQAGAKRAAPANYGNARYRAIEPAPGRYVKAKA
The experiment in a line: discontinuous DTNB assay of CoA release. The assay is classed as biochemical.

In a further assay the target is T2, PhaECAv (Allochromatium vinosum, UniProt P45370).
T2 sequence (P45370 1-355): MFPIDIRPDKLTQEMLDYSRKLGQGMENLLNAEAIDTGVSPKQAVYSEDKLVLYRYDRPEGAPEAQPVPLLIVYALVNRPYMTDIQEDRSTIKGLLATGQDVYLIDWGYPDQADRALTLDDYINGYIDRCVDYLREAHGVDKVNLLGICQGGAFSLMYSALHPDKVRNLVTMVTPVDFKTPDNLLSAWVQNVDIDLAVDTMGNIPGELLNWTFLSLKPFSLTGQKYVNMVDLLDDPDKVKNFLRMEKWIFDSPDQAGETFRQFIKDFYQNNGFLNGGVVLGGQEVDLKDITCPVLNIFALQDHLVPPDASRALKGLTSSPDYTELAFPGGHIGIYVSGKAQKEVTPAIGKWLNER
T2 sequence (P45372 1-357 partner): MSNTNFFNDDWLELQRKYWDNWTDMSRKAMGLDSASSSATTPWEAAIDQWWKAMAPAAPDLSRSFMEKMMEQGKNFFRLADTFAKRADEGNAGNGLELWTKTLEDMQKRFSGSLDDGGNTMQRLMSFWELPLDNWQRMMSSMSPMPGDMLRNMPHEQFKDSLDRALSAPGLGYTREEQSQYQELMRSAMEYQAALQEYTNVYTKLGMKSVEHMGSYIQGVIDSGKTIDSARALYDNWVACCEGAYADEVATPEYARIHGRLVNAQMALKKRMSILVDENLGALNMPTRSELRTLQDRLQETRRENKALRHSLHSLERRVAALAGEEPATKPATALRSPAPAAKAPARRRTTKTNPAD
The assay can be described thus: discontinuous DTNB assay of CoA release. The assay is classed as biochemical.

Regarding `C[C@@H](O)CC(=O)CCCNC(=O)CCNC(=O)[C@H](O)C(C)(C)COP(=O)(O)OP(=O)(O)OC[C@H]1O[C@@H](n2cnc3c(N)ncnc32)[C@H](O)[C@@H]1OP(=O)(O)O` [compound 1, HBCH2CoA], the figures for the Ki on PhaCRe and on PhaECAv were 14.1 µM and 40.1 µM, respectively.
